Results from ChEMBL document CHEMBL1201862, “PubChem BioAssay data set” (2004).
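Protocol summary: plate cells (96-well), add compound at 5 concentrations, incubate 48 h, interpolate endpoints linearly. Abbreviation: GI50, concentration required for 50% inhibition of growth.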 The source made the active and inactive calls. No stated cut-off is given here; in the data, active = GI50 up to about 1.1 µM and inactive = higher.

What was measured:
Test in all cases: inhibition of tumour cell growth, NCI panel, 48 h
BT-549 = system: BT-549
NCI-H226 = system: NCI-H226
K562 = system: K562
SNB-19 = system: SNB-19
OVCAR-8 = system: OVCAR-8
NCI-H23 = system: NCI-H23
MDA-MB-231 = system: MDA-MB-231
A498 = system: A498
MOLT-4 = system: MOLT-4
SF-268 = system: SF-268
SW-620 = system: SW-620
SR = system: SR
ACHN = system: ACHN
UACC-62 = system: UACC-62
TK-10 = system: TK-10
HCC 2998 = system: HCC 2998
SN12C = system: SN12C
EKVX = system: EKVX
KM12 = system: KM12
SK-MEL-28 = system: SK-MEL-28
U-251 = system: U-251
NCI-H460 = system: NCI-H460
NCI/ADR-RES = system: NCI/ADR-RES
HCT-15 = system: HCT-15
SNB-75 = system: SNB-75
RPMI-8226 = system: RPMI-8226
MDA-MB-435 = system: MDA-MB-435
CCRF-CEM = system: CCRF-CEM
CAKI-1 = system: CAKI-1
UACC-257 = system: UACC-257
OVCAR-4 = system: OVCAR-4
UO-31 = system: UO-31
HL-60 = system: HL-60
HOP-92 = system: HOP-92
MDA-N = system: MDA-N
NCI-H522 = system: NCI-H522
HT-29 = system: HT-29
PC-3 = system: PC-3
RXF 393 = system: RXF 393
IGROV-1 = system: IGROV-1
COLO 205 = system: COLO 205
HCT-116 = system: HCT-116
786-0 = system: 786-0
SK-OV-3 = system: SK-OV-3
SF-295 = system: SF-295
DU-145 = system: DU-145
SK-MEL-5 = system: SK-MEL-5
OVCAR-3 = system: OVCAR-3
A549 = system: A549
SF-539 = system: SF-539
MCF7 = system: MCF7
OVCAR-5 = system: OVCAR-5
M14 = system: M14
HOP-62 = system: HOP-62

CC1(C)C2CCC(CN)(C2)C1O (configuration not stated)
GI50 (BT-549): > 100 µM (inactive)
GI50 (NCI-H226): > 100 µM (inactive)
GI50 (K562): > 100 µM (inactive)
GI50 (SNB-19): > 100 µM (inactive)
GI50 (OVCAR-8): > 100 µM (inactive)
GI50 (NCI-H23): > 100 µM (inactive)
GI50 (MDA-MB-231): > 100 µM (inactive)
GI50 (A498): > 100 µM (inactive)
GI50 (MOLT-4): > 100 µM (inactive)
GI50 (SF-268): > 100 µM (inactive)
GI50 (SW-620): > 100 µM (inactive)
GI50 (SR): > 100 µM (inactive)
GI50 (ACHN): > 100 µM (inactive)
GI50 (UACC-62): > 100 µM (inactive)
GI50 (TK-10): > 100 µM (inactive)
GI50 (HCC 2998): > 100 µM (inactive)
GI50 (SN12C): > 100 µM (inactive)
GI50 (EKVX): > 100 µM (inactive)
GI50 (KM12): > 100 µM (inactive)
GI50 (SK-MEL-28): > 100 µM (inactive)
GI50 (U-251): > 100 µM (inactive)
GI50 (NCI-H460): > 100 µM (inactive)
GI50 (NCI/ADR-RES): 80.2 µM (inactive)
GI50 (HCT-15): > 100 µM
GI50 (SNB-75): > 100 µM (inactive)
GI50 (RPMI-8226): > 100 µM (inactive)
GI50 (MDA-MB-435): 65.6 µM (inactive)
GI50 (CCRF-CEM): > 100 µM (inactive)
GI50 (CAKI-1): > 100 µM (inactive)
GI50 (UACC-257): > 100 µM (inactive)
GI50 (OVCAR-4): > 100 µM (inactive)
GI50 (UO-31): > 100 µM (inactive)
GI50 (HL-60): > 100 µM (inactive)
GI50 (HOP-92): > 100 µM (inactive)
GI50 (MDA-N): > 100 µM (inactive)

C=C(Cl)C(Br)(CBr)CCC(Br)C(C)(C)Br (configuration not stated)
GI50 (BT-549): > 10 µM (inactive)
GI50 (NCI-H226): > 10 µM (inactive)
GI50 (K562): 1.88 µM (inactive)
GI50 (NCI-H522): > 10 µM (inactive)
GI50 (SNB-19): 4.25 µM (inactive)
GI50 (HT-29): 3.33 µM (inactive)
GI50 (PC-3): > 10 µM (inactive)
GI50 (RXF 393): 2.75 µM (inactive)
GI50 (NCI-H23): > 10 µM (inactive)
GI50 (MDA-MB-231): 1.62 µM (inactive)
GI50 (A498): > 10 µM (inactive)
GI50 (MOLT-4): 1.08 µM (active)
GI50 (IGROV-1): 1.55 µM (inactive)
GI50 (SF-268): 2.51 µM (inactive)
GI50 (SW-620): 2.7 µM (inactive)
GI50 (ACHN): 9.16 µM (inactive)
GI50 (UACC-62): 4.11 µM (inactive)
GI50 (TK-10): > 10 µM (inactive)
GI50 (COLO 205): 7.33 µM (inactive)
GI50 (HCT-116): 2.01 µM (inactive)
GI50 (HCC 2998): > 10 µM (inactive)
GI50 (786-0): 1.57 µM (inactive)
GI50 (SN12C): 7.73 µM (inactive)
GI50 (EKVX): > 10 µM (inactive)
GI50 (SK-OV-3): > 10 µM (inactive)
GI50 (KM12): 4.37 µM (inactive)
GI50 (SF-295): > 10 µM (inactive)
GI50 (DU-145): > 10 µM (inactive)
GI50 (SK-MEL-5): > 10 µM (inactive)
GI50 (OVCAR-3): > 10 µM (inactive)
GI50 (SK-MEL-28): > 10 µM (inactive)
GI50 (A549): 6.87 µM (inactive)
GI50 (U-251): 5.11 µM (inactive)
GI50 (SF-539): 2.54 µM (inactive)
GI50 (MCF7): 2.11 µM (inactive)
GI50 (SNB-75): 4.7 µM (inactive)
GI50 (RPMI-8226): 1.83 µM (inactive)
GI50 (MDA-MB-435): > 10 µM (inactive)
GI50 (CCRF-CEM): 3.89 µM (inactive)
GI50 (CAKI-1): > 10 µM (inactive)
GI50 (OVCAR-4): 3.99 µM (inactive)
GI50 (OVCAR-5): > 10 µM (inactive)
GI50 (M14): > 10 µM (inactive)
GI50 (UO-31): > 10 µM (inactive)
GI50 (HOP-92): 5.06 µM (inactive)
GI50 (HOP-62): 6.67 µM (inactive)
GI50 (MDA-N): 7.57 µM (inactive)
